In the assay the target is T1, CCXCKR2 receptor (Homo sapiens, UniProt P25106).
T1 construct: host or cells: MCF-7 (endogenous) and/or MDA-MB-435S transfected with hRDC1 in pcDNA3.1(+)
T1 sequence (P25106 whole entry): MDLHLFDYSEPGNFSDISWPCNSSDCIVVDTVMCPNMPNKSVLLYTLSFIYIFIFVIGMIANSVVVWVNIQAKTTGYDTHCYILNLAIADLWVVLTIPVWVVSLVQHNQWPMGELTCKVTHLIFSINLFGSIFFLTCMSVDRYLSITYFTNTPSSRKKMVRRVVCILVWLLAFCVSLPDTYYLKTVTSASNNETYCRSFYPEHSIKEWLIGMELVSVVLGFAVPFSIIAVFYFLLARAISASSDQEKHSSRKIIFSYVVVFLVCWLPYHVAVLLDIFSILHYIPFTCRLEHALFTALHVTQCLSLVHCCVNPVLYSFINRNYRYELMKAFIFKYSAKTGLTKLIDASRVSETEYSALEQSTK
The experiment in a line: Displacement of 125I-labeled SDF-1 from the CCXCKR2 receptor (radioligand binding, determination of IC50 values). Particulars: MCF-7 and/or MDA-MB-435S cells expressing CCXCKR2; 125I SDF-1; 3 hr at 4° C.; read-out: Activity (ability to displace 125I SDF-1 from CCXCKR2). As for the experimental part:
The ability of the compounds to displace the labeled chemokine from the CCXCKR2 receptor sites at multiple concentrations was then determined with the screening process.
Compounds that were deemed effective modulators were able to displace at least 50% of the SDF-1 from the CCXCKR2 receptor at concentrations at or below 10 micromolar (μM) and more preferably at concentrations at or below 2 micromolar. At present, especially preferred compounds can displace at least 50% of the SDF-1 from the CCXCKR2 receptor at concentrations at or below 500 nM. Exemplary compounds that met these criteria are reproduced in Table B below. All compounds were prepared as described in the Examples above, or by related methods substituting readily available starting materials.
Reagents and Cells. ^125I-labeled SDF-1 was purchased from Perkin-Elmer Life Sciences, Inc. (Boston, Mass.). The MCF-7 (adenocarcinoma; mammary gland) cell line was obtained from the American Type Culture Collection (Manassas, Va.) or and was cultured in DMEM (Mediatech, Herndon, Va.) supplemented with 10% fetal bovine serum (FBS) (HyClone Logan, Utah) and bovine insulin (0.01 mg/mL) (Sigma, St. Louis, Mo.) at 37° C. in a humidified incubator at a 5% CO2/air mixture. CCXCKR2 transfected MDA-MB-435S were produced as described below. MDA-MB-435S human breast cancer line, was purchased from ATCC, and cultured in DMEM/10% FBS medium. The complete coding sequence of the gene encoding CCXCKR2 (a.k.a.CXCR7, hRDC1), was isolated from MCF-7 cells using μMACs mRNA isolation kit (Miltenyi Biotec, Auburn, Calif.). DNA contamination was removed by DNase digestion via RNeasy columns (Qiagen, Inc., Valencia, Calif.) and cDNA was generated using GeneAmp RNA PCR Core Kit (Applied Biosystems, Foster City, Calif.). PCR of cDNA samples was performed using Taq PCR Master Mix kit (Qiagen, Inc.) and hRDC1 primers harboring 5′ and 3′ Not I sites (hRDC1F 5′-[…]-3′ (SEQ ID NO:1), hRDC1R 5′-[…]-3′ (SEQ ID NO:2)) Not I digested PCR product was ligated into Not I digested pcDNA3.1(+)(Invitrogen, Carlsbad, Calif.) and screened for orientation and sequence confirmed. Plasmid DNA was then isolated from overnight bacterial cultures by Maxiprep (Qiagen, Inc.). Plasmid DNA (10 μg) was added to MDA-MB-435s cells and cells were electroporated (0.22 kV, 960 uF) via Gene Pulser (Biorad laboratories, Hercules, Calif.). 48 hr post-electroporation, cells were transferred to selection medium (1000 ug/ml G418).
Binding Analysis. Target compounds were tested to determine their ability to bind with CCXCKR2 sites on MCF-7 and/or MDA-MB-435S cells. Efficiency-maximized radioligand binding using filtration protocols as described in Dairaghi D J, et al., HHV8-encoded vMIP-I selectively engages chemokine receptor CCR5. Agonist and antagonist profiles of viral chemokines., J. Biol. Chem. 1999 Jul. 30; 274(31): 21569-74 and Gosling J, et al., Cutting edge: identification of a novel chemokine receptor that binds dendritic cell-and T cell-active chemokines including ELC, SLC, and TECK., J. Immunol. 2000 Mar. 15; 164(6):2851-6 was used.
In these assays, MCF-7 and/or MDA-MB-435S cells were interrogated with the target compounds and the ability of these compounds to displace ^125I radiolabeled SDF-1 was assessed using the protocol described in Dairaghi and Gosling. The target compounds were added to the plate to the indicated concentration and were then incubated with cells followed by the addition of radiolabeled chemokine (^125I SDF-1) for 3 hr at 4° C. in the following binding medium (25 mM HEPES, 140 mM NaCl, 1 mM CaCl2, 5 mM MgCl2 and 0.2% bovine serum albumin, adjusted to pH 7.1). All assays were then incubated for 3 hrs at 4° C. with gentle agitation. Following incubation in all binding assays, reactions were aspirated onto PEI-treated GF/B glass filters (Packard) using a cell harvester (Packard) and washed twice (25 mM HEPES, 500 mM NaCl, 1 mM CaCl2, 5 mM MgCl2, adjusted to pH 7.1). […]
On the technique in general: In a radioligand displacement assay an active substance lowers the binding of a labelled ligand.
`COc1cc(C(=O)N(CCC2CCCN2C)CC2=C(Cl)c3cc(F)ccc3OC2)cc(OC)c1OC` (centres unmarked): the IC50 is < 500 nM.
On to `COc1cc(C(=O)N(CCC2CCCN2C)Cc2cc3ccccc3n2C)cc(OC)c1OC` (centres unmarked), for which the IC50 was < 500 nM.
The figure for `COc1ccc(C(=O)N(C[C@@H]2CCCN2CC2CCCCC2)c2ccc(-c3ccccc3)cc2)cc1OC` is < 10000 nM.
The figure for `COc1ccc(C(=O)N(C[C@@H]2CCCN2CC2CCCCC2)c2cccc(-c3csc(C)n3)c2)cc1OC` is < 2000 nM.
To `COc1cc(C(=O)N(Cc2cc3cc(Cl)ccc3o2)C[C@@H]2CCCN2)ccc1OC(F)F` belongs < 500 nM; to `COc1cc(C(=O)N(Cc2cnc3ccccc3c2)C[C@@H]2CCCN2C2CCC2)cc2c1OC(C)(C)O2`, < 10000 nM; to `COc1cc(C(=O)N(Cc2cnc3ccccc3c2)C[C@@H]2C[C@@H]3CCCC[C@@H]3N2)cc2c1OC(C)(C)O2`, < 2000 nM.
For `COc1cc(C(=O)N(Cc2nc(-c3ccccn3)sc2Cl)C[C@@H]2CCCN2C2CCC2)cc2c1OC(C)(C)O2`, the IC50 was < 10000 nM.
Turning to `COc1ccc(C(=O)N(Cc2ccc3ccccc3c2)C[C@@H]2CCCN2CC2CCCCC2)cc1OC` [Example 1, N—(S)-(1-Cyclohexylmethyl-pyrrolidine-2-ylmethyl)-3,4-dimethoxy-N-naphthalen-2-ylmethyl-benzamide], the IC50 was < 500 nM.
Regarding `COc1ccc(C(=O)N(Cc2ccc3ccccc3c2)C[C@@H]2CCCN2CC2CC=CCC2)cc1OC` (some centres unmarked) [Example 1a], the IC50 was < 500 nM.
Take `COc1ccc(C(=O)N(Cc2cnc3ccccc3c2)C[C@@H]2CCCN2CC2CCCCC2)cc1OC` [Example 2, N—(S)-(1-Cyclohexylmethyl-pyrrolidin-2-ylmethyl)-3,4-dimethoxy-N-quinolin-3-ylmethyl-benzamide]: the IC50 was < 2000 nM.
The figure for `COc1ccc(C(=O)N(Cc2cc3ccccc3o2)C[C@@H]2CCCN2CC2CCCCC2)cc1OC` [Example 3, N-benzofuran-2-ylmethyl-N—(S)-(1-cyclohexylmethyl-pyrrolidin-2-ylmethyl)-3,4-dimethoxy-benzamide] is < 500 nM; for `COc1cc(C(=O)N(Cc2cc3ccccc3o2)C[C@@H]2CCCN2CC2CCCCC2)cc(OC)c1OC` [Example 4, N-Benzofuran-2-ylmethyl-N—(S)-(1-cyclohexylmethyl-pyrrolidin-2-ylmethyl)-3,4,5-trimethoxy-benzamide] it is < 500 nM.
The figure for `COc1cc(C(=O)N(CCC2CCCN2C)Cc2ccc3ccccc3c2)cc(OC)c1OC` (centres unmarked) [Example 5, 3,4,5-Trimethoxy-N-[2-(1-methyl-pyrrolidin-2-yl)-ethyl]-N-naphthalen-2ylmethyl-benzamide] is < 500 nM; for `COc1cc(C(=O)N(CCC2CCCN2C)Cc2cccc3ccccc23)cc(OC)c1OC` (centres unmarked) [Example 6, 3,4,5-Trimethoxy-N[2-(1-methyl-pyrrolidin-2-yl)-ethyl]-N-naphthalen-1-ylmethyl-benzamide] it is < 2000 nM; for `COc1cc(C(=O)N(CCC2CCCN2C)Cc2cc3ccccc3o2)cc(OC)c1OC` (centres unmarked) [Example 7, N-Benzofuran-2-ylmethyl-3,4,5-trimethoxy-N-[2-(1-methyl-pyrrolidin-2-yl)-ethyl]-benzamide] it is < 500 nM.
The figure for `COc1cc(C(=O)N(CCC2CCCN2C)Cc2cc3ccccc3s2)cc(OC)c1OC` (centres unmarked) [Example 8, N-Benzo[b]thiophen-2-ylmethyl-3,4,5-trimethoxy-N-[2-(1-methyl-pyrrolidin-2-yl)-ethyl]-benzamide] is < 500 nM; for `COc1cc(C(=O)N(CCC2CCCN2C)Cc2ccc3c(c2)OCCO3)cc(OC)c1OC` (centres unmarked) [Example 9, N-(2,3-Dihydro-benzo[1,4]dioxin-6-ylmethyl)-3,4,5-trimethoxy-N-[2-(1-methyl-pyrrolidin-2-yl)-ethyl]-benzamide] it is < 500 nM.
As for `COc1cc(C(=O)N(CCC2CCCN2C)Cc2cnc3ccccc3c2)cc(OC)c1OC` (centres unmarked) [Example 10], the IC50 is < 10000 nM.
The figure for `COc1cc(C(=O)N(CCC2CCCN2C)Cc2ccc3ccccc3n2)cc(OC)c1OC` (centres unmarked) [Example 11] is < 500 nM; for `COc1cc(C(=O)N(CCC2CCCN2C)Cc2csc3ccccc23)cc(OC)c1OC` (centres unmarked) [Example 12, N-Benzo[b]thiophen-3-ylmethyl-3,4,5-trimethoxy-N-[2-(1-methyl-pyrrolidin-2-yl)-ethyl]-benzamide] it is < 2000 nM.
The figure for `COc1cc(C(=O)N(CCC2CCCN2C)Cc2nc3ccccc3s2)cc(OC)c1OC` (centres unmarked) [Example 13, N-Benzothiazol-2-ylmethyl-3,4,5-trimethoxy-N-[2-(1-methyl-pyrrolidin-2-yl)-ethyl]-benzamide] is < 500 nM.
The figure for `COc1cc(C(=O)N(CCC2CCCN2C)Cc2nc3ccccc3n2C)cc(OC)c1OC` (centres unmarked) [Example 14, 3,4,5-Trimethoxy-N-(1-methyl-1H-benzoimidazol-2-ylmethyl)-N-[2-(1-methyl-pyrrolidin-2-yl)-ethyl]-benzamide] is < 10000 nM.
In the case of `COc1cc(C(=O)N(CCC2CCCN2C)Cc2cc3ccccc3[nH]2)cc(OC)c1OC` (centres unmarked) [Example 15, N-(1H-Indol-2ylmethyl)-3,4,5-trimethoxy-N-[2-(1-methyl-pyrrolidin-2-yl)-ethyl]-benzamide], the IC50 was < 2000 nM.
With `COc1cc(C(=O)N(CCCN2CCCCC2C)c2cccc(-c3ccccc3)c2)cc(OC)c1OC` (centres unmarked) [Example 17, N-Biphenyl-3-yl-3,4,5-trimethoxy-N-[3-(2-methyl-piperidin-1-yl)-propyl]-benzamide], the IC50 was < 500 nM.
The figure for `COc1cc(C(=O)N(CCCN2CCCCC2C)Cc2ccc3ccccc3c2)cc(OC)c1OC` (centres unmarked) [Example 18] is < 500 nM; for `COc1cc(C(=O)N(CCCN2CCCCC2C)Cc2ncc(-c3ccccc3)s2)cc(OC)c1OC` (centres unmarked) [Example 19, 3,4,5-Trimethoxy-N-[3-(2-methyl-piperidin-1-yl)-propyl]-N-(5-phenyl-thiazol-2-ylmethyl)-benzamide] it is < 2000 nM.
`COc1cc(C(=O)N(CCCN2CCCCC2C)c2ccc3ccccc3c2)cc(OC)c1OC` (centres unmarked) [Example 20, 3,4,5-Trimethoxy-N-[3-(2-methyl-piperidin-1-yl)-propyl]-N-naphthalen-2-yl-benzamide]: the IC50 was < 2000 nM.
To `COc1ccc(C(=O)N(C[C@@H]2CCCN2)c2cccc(-c3ccccc3)c2)cc1OC` [Example 21] belongs < 2000 nM.
To `COc1ccc(C(=O)N(C[C@@H]2CCCN2CCO)c2cccc(-c3ccccc3)c2)cc1OC` [Example 22, N-Biphenyl-3-yl-(S)—N[1-(2-hydroxy-ethyl)-pyrrolidin-2ylmethyl]-3,4-dimethoxy-benzamide] belongs < 500 nM; to `COc1ccc(C(=O)N(C[C@@H]2CCCN2C(C)C)c2cccc(-c3ccccc3)c2)cc1OC` [Example 23, N-Biphenyl-3-yl-(S)—N-(1-isopropyl-pyrrolidin-2-ylmethyl)-3,4-dimethoxy-benzamide], < 500 nM.
To `COc1ccc(C(=O)N(C[C@@H]2CCCN2CC2CCCCC2)c2cccc(-c3ccccc3)c2)cc1OC` [Example 24, N-biphenyl-3-yl-(S)—N-(1-cyclohexylmethyl-pyrrolidin-2-ylmethyl)-3,4-dimethoxy-benzamide] belongs < 500 nM.

For the origin of these results see patent publication US7417062B2, “Substituted arylamides” (ChemoCentryx, Inc., priority 2004, dated 2008).
